Experimental data as given in patent US11730717B1, “Melanin-inspired antimicrobial” (The Board of Regents for the Oklahoma Agricultural and …, priority 2020, dated 2023).
“And” between values parts separate entries of the source, which are not always exact repeats. Equal values may be shown once.

Columns and labels:
[1] = system: Gram-positive bacteria, including E. faecalis and clinical isolates MRSA; test: MIC summary for Gram-positive bacteria; assay type: cell-based
Experimental: The minimum inhibitory concentrations (MICs) were determined by the broth microdilution method, following the guidelines of the Clinical and Laboratory Standards Institute (CLSI). Two-fold serial dilutions of EIPE-1, DBI, and Arm (starting with 1 mg/mL) were prepared in a 100 μL volume in 96-well microtiter plates. The dilution series included DMSO as a negative control. The bacterial culture […] was normalized to an OD600 of 0.2 and was then added to each well. Plates were incubated with shaking at 220 RPM at 37° C., and the MIC was determined based on the lowest concentration at which no visible growth of the bacterial isolate was observed.
In summary, a new antimicrobial, EIPE-1, was designed and synthesized, inspired by the black-brown pigment, Eumelanin. It was confirmed that the Eumelanin-inspired core DBI maintained its intrinsic antimicrobial activity, and that enhancement could be achieved with the incorporation of bactericidal moieties. […] Bactericidal effects of EIPE-1 against S. aureus were monitored and confirmed using the Live/Dead staining and fluorescent microscopy.

MRSA = test: Live/Dead staining and fluorescent microscopy; assay type: cell-based, Staphylococcus aureus
Experimental: MRSA was grown overnight in 10 mL of LB broth, sub-cultured (5 mL of overnight culture added to 20 mL LB) and grown for 3 h. Bacterial culture (150 μL) were removed and transferred to a 1.5 mL centrifuge tube, which was treated with DMSO, EIPE-1 (0.01 mg/mL) or DBI (0.01 mg/mL) for 30 minutes. Equal amounts of the two dyes (SYTO 9 dye, 3.34 mM in DMSO), and propidium iodide (20 mM in DMSO) were mixed. Then 0.5 μL of the dye mixture was added to each tube of treated MRSA cultures. Wet mounts were prepared on glass slides for imaging live and dead MRSA, and Differential Interference Contrast (DIC) images were obtained using a Leica DMI600B fluorescent microscope. To determine the percentage of bacteria alive and dead, the total bacteria in each condition were counted in 20 fields of view and graphed using Prism 5.0.
To address MRSA viability in response to EIPE-1 treatment, a Live/Dead staining and microscopy was utilized. MRSA was treated with either DBI or EIPE-1 (16 μg/mL, 17 μM each) for 30 minutes (DMSO was used as a negative solvent control) and then stained with the dyes, Syto™ 9 and propidium iodide.

B. subtilts ATCC 6633 = test: MIC and MBC values (Table 2); assay type: cell-based; settings: Bacillus subtilis, ATCC6633

COC(=O)c1cc2c(C#Cc3ccc(OCCC[N+](C)(C)C)cc3)c(OC)c(OC)c(C#Cc3ccc(OCCC[N+](C)(C)C)cc3)c2n1C [EIPE-1, 3,3′-((((5,6-dimethoxy-2-(methoxycarbonyl)-1-methyl-1H-indole-4,7-diyl)bis(ethyne-2,1-diyl))bis(4,1-phenylene))bis(oxy))bis(N,N,N-trimethylpropan-1-aminium) iodide]
MIC [1]: 8 µg/mL to 16 µg/mL and 8.5 µM to 17 µM
Live/Dead staining (green = intact membrane, red = damaged membrane) (MRSA; 16 μg/mL, 17 μM, 30 minutes, Syto 9 and propidium iodide): only stained red
time of exposure until biocidal activity occurred (MRSA; MRSA): ≤ 30 min
MBC (B. subtilts ATCC 6633): 1 mg/L
MIC (B. subtilts ATCC 6633): 1 mg/L
